The test system of one assay is thrombomodulin. Briefly: Thrombomodulin levels in obese patients. The assay is classed as in vivo, human. Particulars: obese patients of Example 6 (FIG. 7). From the text: The expression of another cardiovascular risk marker, thrombomodulin, was examined in the patients described in Example 6. […] Similarly to Example 6, the reduction in thrombomodulin was independent of effects on metabolic parameters and body weight.

Assay [1] deals with low density lipoprotein cholesterol (LDLc). To be noted: obese patients of Example 6 (FIG. 8). As to the method: (§1) The compound was intravenously administered to each patient of a cohort (except for a placebo cohort) twice weekly for 26 days. Each of patients in the three non-placebo cohorts received either 0.1 mg/m^2 (cohort 1); 0.3 mg/m^2 (cohort 2); or 0.9 mg/m^2 (cohort 3) doses of the compound at the time of administration. The trial was conducted under the appropriate government and medical supervision.

Assay [2] deals with apolipoprotein(a) (apoLp(a)). Briefly: Apolipoprotein(a) levels in obese patients. In kind it is in vivo, human. To be noted: obese patients of Example 6 (FIG. 9). From the text: The expression of another cardiovascular risk marker, apolipoprotein(a) (apoLp(a)), was examined in the patients described in Example 6. […] Similarly to Example 6, the reduction in apoLp(a) was independent of effects on body weight.

The subject of another assay is C-Reactive Protein (CRP). The assay is described as follows: Serum C-Reactive Protein in obese patients, intravenous twice weekly for 26 days. In kind it is in vivo, human. How it is done: as §1
The test system of assay [3] is total cholesterol. The assay is described as follows: Total cholesterol in human subjects with elevated total cholesterol. The assay is classed as in vivo. To be noted: human subjects with initial fasting total cholesterol in excess of 180 mg/dl, twice weekly for four weeks, n=10, p=0.018 (FIG. 3). As to the method: Human subjects with initial fasting total cholesterol levels in excess of 180 mg/dl were administered Compound A twice weekly for a total of four weeks of treatment.

Assay [4] concerns total cholesterol. The assay is described as follows: Total cholesterol in rats after four weeks of treatment. In kind it is in vivo. On the set-up: Total cholesterol levels, Mean: unit not given here. Particulars: for Total cholesterol levels, Mean: vehicle mean 86.7. How it is done: Rats were administered 1 or 3 mg/kg fumagillol daily for a total of four weeks of treatment.

In assay [5] the test system is C57BL/6 mice conditioned on a high fat diet. The assay is described as follows: Oral fumagillin in mice conditioned on a high fat diet (DIO). The assay is classed as in vivo. From the text: Oral administration of the MetAP2 inhibitor fumagillin causes an increase in circulating ketone bodies, as measured by concentration of beta hydroxybutyrate, which indicates an increase in the breakdown of stored fat and activation of ketogenesis.

For the next assay, the system named is FGF-21. Briefly: R&D Systems Quantikine Mouse FGF-21 Immunoassay, plasma FGF-21 after ten days of treatment. In kind it is in vivo. From the text: In Table 1, animals #1.1, 1.2, 1.3, 2.1, 2.2 and 2.3 were vehicle-treated and animal #3.1, 3.2, 3.3, 4.1, 4.2 and 4.3 were ZGN-201-treated. Sample 3.1 was above the level of quantification.
FIG. 4 indicates the average (±SEM) plasma FGF-21 levels for all study groups.

Another assay has as its system PCSK9. Briefly: Liver mRNA levels of PCSK9 in treated mice. The assay is classed as in vivo. To be noted: C57BL/6 mice, at day 3 and after (FIG. 5). From the text: Liver mRNA levels of PCSK9 were examined in C57BL/6 mice treated with ZGN-201. FIG. 5 depicts the hepatic PCSK9 mRNA (% of vehicle control) vs. days of treatment with ZGN-201.
The mark [6] stands for this setting: 1 mg/kg po daily for four weeks.
The mark [7] stands for this setting: 3 mg/kg po daily for four weeks.

Values joined by “and” are separate entries in the source; they are usually repeats but may differ in a detail not shown here. Identical values can stand only once.

For the molecule `CO[C@@H]1[C@H](OC(=O)C=Cc2ccc(OCCN(C)C)cc2)CC[C@]2(CO2)[C@H]1[C@@]1(C)O[C@@H]1CC=C(C)C.O=C(O)C(=O)O` [6-O-(4-dimethylaminoethoxyl)cinnamoyl fumagillol oxalate], in the assay on thrombomodulin, the thrombomodulin levels entry was “decreases”. Besides, the LDL-c levels entry in [1] is “decreases”. Besides, the “apoLp(a) levels” value in assay [2] was “decreases”. In addition, in the assay with C-Reactive Protein (CRP) (0.9 mg/m^2 dose level, by the 26th day of treatment, p<0.01), the “subjects with elevated CRP concentrations (above 3.0 μg/ml) reduced to levels within the normal range” value is given as “six out of eight”. The “levels of C-Reactive Protein (CRP) in patients' serum” value in the assay on C-Reactive Protein (CRP) (obese patients, iv twice weekly for 26 days, 0.1, 0.3 or 0.9 mg/m^2 (FIG. 6)) is recorded as “decrease”.
Take `CO[C@@H]1[C@H](OC(=O)C=Cc2ccc(OCCN(C)C)cc2)CC[C@]2(CO2)[C@H]1[C@@]1(C)O[C@@H]1CC=C(C)C` [Compound A, O-(4-dimethylaminoethoxycinnamoyl)fumagillol]: in the assay on total cholesterol [3], the Total cholesterol levels result was “reduced”.
Consider `CO[C@@H]1[C@H](O)CC[C@]2(CO2)[C@H]1[C@@]1(C)O[C@@H]1CC=C(C)C` [Fumagillol, fumagillol], for which, in the assay with total cholesterol [4] (setting [6]), the “Total cholesterol levels, % of vehicle” value was found to be 76.5% and the “Total cholesterol levels, Mean” value is given as 66.3. In addition, in the assay on total cholesterol [4] (setting [7]), the “Total cholesterol levels, % of vehicle” value stood at 63.7% and the “Total cholesterol levels, Mean” value was 55.2.
In the case of `CO[C@@H]1[C@H](OC(=O)/C=C/C=C/C=C/C=C/C(=O)O)CC[C@]2(CO2)[C@H]1[C@@]1(C)O[C@@H]1CC=C(C)C` [fumagillin], the “hydroxybutyrate concentration at longer time points” value in assay [5] (DIO C57BL/6 mice, diet admixture 1 mg/kg daily for 250 days (FIG. 1C)) is “Increased hydroxybutyrate concentration persisted”. Moreover, the beta hydroxybutyrate concentrations entry in [5] (DIO C57BL/6 mice, oral gavage 0.3 or 3 mg/kg daily for 10 days (FIG. 1A)) is “increase”. Also, the “free fatty acid concentration” value in assay [5] (DIO C57BL/6 mice, oral gavage 0.3 or 3 mg/kg daily for 10 days (FIG. 1B)) is listed as “without an increase”. In [5] (mice on a high fat diet), the sensitivity to insulin entry is “normalizes”. Besides, the “Fasted glucose and insulin levels, insulin-glucose product” value in assay [5] (mice on high fat diet, 1 mg/kg fumagillin, versus age-matched lean mice and untreated DIO mice (FIG. 2A-2C)) is “more similar to that of age-matched lean mice than that of untreated mice on a high fat diet”. Also, the “FGF-21 absolute numbers, Average of duplicates (single animals)” value with FGF-21 (animals 3.1 to 4.3, one value per animal, listed as ZGN-201) is “AQL and 2248.25 pg/ml and 2514.66 pg/ml and 2166.60 pg/ml and 1194.64 pg/ml and 3597.58 pg/ml”. In the assay with FGF-21 (vehicle group mean 991.47), the “FGF-21 MEAN of treated group” value is 2344.34 pg/mL. In the assay with PCSK9, the “hepatic PCSK9 mRNA (% of vehicle control)” value is “reduced PCSK9 expression”.

These data come from patent US20160166531A1, “METHODS AND COMPOSITIONS FOR TREATING CARDIOVASCULAR DISORDERS” (Zafgen, Inc., priority 2010, published 2016).
